Molecules are shown by their SMILES.

For data set [1], the system named is dandelion. Nature of the data set: Dandelion control, targeted applications on turfed terrain (damage rating 0-5, mortality %). To be noted: for control efficacy (damage rating and mortality percentage): 0.014 to 0.036 g/plant. It is filed as in vivo, Taraxacum officinale. Here is the method:
(§1) Control: eradication of weeds assessed, after a certain length of time, based on a visible damage rating of the foliage, varying from 0 to 5, and/or the mortality percentage observed on the treated plants.
The experiment was conducted using a randomized complete block design. Four repetitions were done for each treatment.
Dependent variable: mean damage rating (from 0 to 5) with the variation coefficient assessed after 42 days.
Dependent variable: Mean mortality percentage with the variation coefficient assessed after 42 days.
Treatment: solution of 4Cl-IAA applied at a dose of 0.03 g/plant containing 10% urea as co-ingredient
Dependent variable: mean damage rating (from 0 to 5)
The experiment was conducted using a randomized complete block design. Four repetitions were done for each treatment, except for 4Cl-IAA methyl ester, where three repetitions were done.
Treatment: the applied quantities varied from 0.014 to 0.036 g/plant, except for IAA, where the quantity was higher (0.2 g/plant) in light of the information found in the literature on the effect of the latter.
Dependent variable: mean damage rating (from 0 to 5) and mean mortality percentage assessed between 28 and 35 days after application

The next data set relates to peas and mustard. To be noted: aqueous solution containing 10% ethanol; cited from earlier work.
Data set [2] can be described thus: Peroxide deterioration tests. It is filed as physicochemical.
In data set [3] the test system is turf. Description: Selectivity: turf impact rating (0-3), spreading applications. To be noted: for Turf impact rating: 100 mL/m^2, after 50 days. It is filed as in vivo. Here is the method: Selectivity of the effect: absence of a pronounced effect of the herbicide on the desirable plants assessed based on an impact rating on the latter, varying from 0 to 3 in the case of turf.
(§2) The experiment was conducted using a randomized complete block design. Three repetitions were done for each treatment with surface areas of 0.5 m^2.
(§3) Treatment: 4Cl-IAA without co-ingredient with an application rate of 100 mL/m^2
(§4) Dependent variable: mean damage rating (from 0 to 5) of the dandelion and mean impact rating (from 0 to 3) on the turf assessed after 50 days
The experiment was conducted using a completely randomized design with surface areas of 2 m^2 per treatment.
Dependent variable: impact rating (from 0 to 3) on the turf assessed after 4 and 90 days

Data set [4] deals with dandelion. Description: Dandelion control, spreading applications (damage rating 0-5). To be noted: 100 mL/m^2, after 50 days. It is filed as in vivo, Taraxacum officinale. The procedure: as §1, §2, §3, §4
Data set [5] can be described thus: Storage stability of finished product. To be noted: finished product incorporating the molecule; room temperature. It is filed as physicochemical.
Data set [6] concerns turf. Description: Selectivity: turf impact rating (0-3), targeted applications. It is filed as in vivo. To be noted: doses below 0.1 g/plant; without co-ingredient; after 7 days; rating 0 to 3. Here is the method:
Selectivity of the effect: absence of a pronounced effect of the herbicide on the desirable plants assessed based on an impact rating on the latter, varying from 0 to 3 in the case of turf. [table] The experiment was conducted using a randomized complete block design. Five repetitions were done for each treatment. Treatment: 4Cl-IAA without co-ingredient Dependent variable: Impact rating (from 0 to 3) on the turf assessed after 7 days.

The next data set has as its system barley. To be noted: cited from earlier work; for quantity sufficient to affect the growth by 50%: barley (monocotyledonous), aqueous solution containing 10% ethanol.
A further data set deals with plantain. Nature of the data set: Plantain control, second targeted application. To be noted: 0.015, 0.023 and 0.030 g/plant; without co-ingredient. It is filed as in vivo, Plantago sp. Here is the method: The experiment was conducted using randomized complete block design. Four repetitions were done for each treatment. Treatment: 4Cl-IAA without co-ingredient at three doses, i.e., 0.015, 0.023 and 0.030 g/plant Dependent variable: mean mortality percentage

Data set [7] relates to dicotyledonous weed species. Nature of the data set: Weed species controlled with targeted applications (Example 10). It is filed as in vivo. To be noted: 0.022 to 0.036 g/plant; after 21 to 40 days depending on the species; weed species of Table 4. The procedure: The experiments were conducted according to completely randomized design and randomized complete block design with targeted applications for weed control on various terrain covered in turf.
Treatment: 4Cl-IAA without co-ingredient with doses varying from 0.022 to 0.036 g/plant
Variables: Observation of a damage rating above 4 and a mortality percentage above 80%, assessed after a period of 21 to 40 days, depending on the species.

Setting [8] is: 0.2 g/plant, 28 to 35 days after application.
Setting [9] is: 28 to 35 days after application.

Turning to `O=C(O)Cc1c[nH]c2ccccc12` [IAA, indole-3-acetic acid], in the data set on dandelion [1] (setting [8]), the mean damage rating result is listed as “interesting damage rating” and the mean mortality percentage entry is on record as “low mortality percentage”.
Consider `O=C(O)Cc1c[nH]c2cccc(Cl)c12` [4Cl-IAA, 4-chloroindole-3-acetic acid], for which, in the data set on peas and mustard, the “impact on the growth of dicotyledonous plants compared to 2,4-D” value is on record as “about 4 times lower”. Further, the “stability in peroxide deterioration tests” value in data set [2] is listed as “a certain stability”. The “impact rating on the turf” value in the data set with turf [3] (dose 0.25 g/m^2, after 4 days) worked out at 0; in the data set on turf [3] (dose 0.25 g/m^2, after 90 days) it was 0; in the data set with turf [3] (dose 0.6 g/m^2, after 4 days), 1; in the data set on turf [3] (dose 0.6 g/m^2, after 90 days), 0; in the data set with turf [3] (dose 0.9 g/m^2, after 4 days) it was 1; in the data set with turf [3] (dose 0.9 g/m^2, after 90 days), 0. The “impact rating on the turf” value with turf [3] (dose 1.0 g/m^2, after 4 days) was determined as 2; with turf [3] (dose 1.0 g/m^2, after 90 days), 0; with turf [3] (dose 1.2 g/m^2, after 4 days) it was 3; with turf [3] (dose 1.2 g/m^2, after 90 days), 0. The Turf impact rating with turf [3] (dose 0.3 g/m^2) was found to be 0.7; with turf [3] (dose 0.6 g/m^2), 1.7; in the data set with turf [3] (dose 1.0 g/m^2), 1.7; in the data set with turf [3] (dose 1.2 g/m^2), 2.0. For the same molecule, the Dandelion damage rating in the data set on dandelion [4] (dose 0.3 g/m^2) amounted to 3.0; in the data set on dandelion [4] (dose 0.6 g/m^2) it was 4.1; with dandelion [4] (dose 1.0 g/m^2), 3.8; in the data set with dandelion [4] (dose 1.2 g/m^2), 3.9. The stability in storage entry in data set [5] is reported as “stability over two years”. For the same molecule, the turf impact entry in the data set on turf [6] is “zero to acceptable”. Also, the “quantity sufficient to affect the growth by 50%” value in the data set on barley is given as 0.17 g/m^2. Moreover, in the data set on barley (barley), the “sensitivity of the monocotyledonous plant compared with 2,4-D” value is listed as “three times higher”. Further, the “control efficacy (mean mortality percentage), effect of a second application” value with plantain was “pronounced improvement in the control efficacy”. In addition, the “control efficacy (damage rating and mortality percentage)” value in the data set with dandelion [1] (setting [9]) was “control efficacies close to those observed with a 2,4-D-based herbicide”. Further, the damage rating result is listed as “only a small effect” in the data set with dandelion [1] (after 3 days, solution containing 0.45% of 4Cl-IAA, rating 0 to 5) and “above 4” in data set [7]. Further, the “damage rating for dandelion control” value in the data set on dandelion [1] (after 35 days, solution containing 0.45% of 4Cl-IAA, rating 0 to 5) came to 5. Besides, in the data set with dandelion [1] (dose 0.0075 g per plant, without vs with chelating agent (HEDTA or EDDS), rating 0 to 5), the “damage rating on dandelions” value was 3.1. For the same molecule, the “decrease of the mortality percentage” value in the data set with dandelion [1] (doses below 0.01 g/plant, without co-ingredient, after 42 days) is “about 50%”. In addition, the mortality percentage entry in [7] is on record as “above 80%”.
In the case of `O=C(O)COc1ccc(Cl)cc1Cl` [2,4-D, 2,4-dichlorophenoxyacetic acid, reference compound], the “quantity sufficient to affect the growth by 50%” value in the data set with barley is on record as 0.5 g/m^2.
For `COC(=O)Cc1c[nH]c2cccc(Cl)c12` [methyl ester of 4Cl-IAA], the “control efficacy (damage rating and mortality percentage)” value in the data set with dandelion [1] (setting [9]) is on record as “control efficacies close to those observed with a 2,4-D-based herbicide”.

The values above are taken from patent publication US11606956B2, “4-chloroindole-3-acetic acid for controlling unwanted plants” (PREMIER TECH TECHNOLOGIES LTÉE, priority 2014, dated 2023).
